From ChEMBL document CHEMBL6092180 (Eur J Med Chem, 2024) come the findings set out here.

Values after ≈ are worked out from the molar mass of the structure shown. Active and inactive are the calls of the source. The rule behind the calls is not given here. Bounds are passed on as bounds.

The subject of data set [1] is Candida parapsilosis. Kind of data set: Antifungal activity against Candida parapsilosis GIM 2.190 assessed as inhibition of fungal growth by CLSI M27-A3 guidelines based method. The settings on record: Lodderomyces parapsilosis. Format: functional.
Data set [2] has as its system Pichia kudriavzevii. The data set can be described thus: Antifungal activity against Candida krusei GIM 2.1 assessed as inhibition of fungal growth by CLSI M27-A3 guidelines based method. Format: functional.
Data set [3] concerns Nakaseomyces glabratus. The data set can be described thus: Antifungal activity against Candida glabrata assessed as inhibition of fungal growth by CLSI M27-A3 guidelines based method. Format: functional.
The subject of data set [4] is Candida albicans. Kind of data set: Antifungal activity against Candida albicans GIM 2.194 assessed as inhibition of fungal growth by CLSI M27-A3 guidelines based method. It counts as functional.
Data set [5] is described as follows: Metabolic stability in human liver microsomes assessed as half-life preincubated for 10 mins followed by NADPH addition and measured after 60 mins by LC-MS/MS analysis. The settings on record: time 70 min. Format: ADME, Microsome. On the technique in general: Liver microsomes are vesicles of endoplasmic reticulum, rich in cytochrome P450 enzymes.
For data set [6], the system named is Candida albicans. Kind of data set: Antifungal activity against Candida albicans SC5314 assessed as inhibition of fungal growth by CLSI M27-A3 guidelines based method. It counts as functional.
Data set [7] is described as follows: Metabolic stability in human liver microsomes assessed as parent compound remaining preincubated for 10 mins followed by NADPH addition and measured after 60 mins by LC-MS/MS analysis. It counts as ADME, Microsome. The settings on record: time 70 min, read-out: Stability.
Data set [8] deals with Candida tropicalis. Kind of data set: Antifungal activity against Candida tropicalis GIM 2.183 assessed as inhibition of fungal growth by CLSI M27-A3 guidelines based method. It counts as functional.
For data set [9], the system named is Cryptococcus neoformans. The data set can be described thus: Antifungal activity against Cryptococcus neoformans CGMCC 2.3161 assessed as inhibition of fungal growth by CLSI M27-A3 guidelines based method. Format: functional.
Data set [10] in a line: Cytotoxicity against human NCI-H460 cells assessed as inhibition of cell growth incubated for 72 hrs by MTT assay. It counts as toxicity, cell-based.
The test system of data set [11] is Candida albicans. Kind of data set: Antifungal activity against fluconazole-resistant Candida albicans clinical isolate 901 assessed as inhibition of fungal growth by CLSI M27-A3 guidelines based method. Format: functional.
The subject of data set [12] is Aspergillus fumigatus. Kind of data set: Antifungal activity against Aspergillus fumigatus cgmcc 3.7795 assessed as inhibition of fungal growth by CLSI M27-A3 guidelines based method. It counts as functional.
Data set [13] has as its system Candida albicans. Kind of data set: Antifungal activity against fluconazole-resistant Candida albicans CaR assessed as inhibition of fungal growth by CLSI M27-A3 guidelines based method. Format: functional.
Data set [14] relates to Candida albicans. The data set can be described thus: Fungicidal activity against fluconazole and iodiconazole resistant Candida albicans clinical isolate 17# incubated for 48 hrs by PDA plate based method. Format: functional.
Data set [15] deals with Candida albicans. Kind of data set: Antifungal activity against fluconazole and iodiconazole resistant Candida albicans clinical isolate 17# assessed as inhibition of fungal growth by CLSI M27-A3 guidelines based method. Format: functional.
Data set [16] deals with Candida albicans. Kind of data set: Antibiofilm activity against fluconazole-resistant Candida albicans CPCC400616 assessed as inhibition of metabolic activity of biofilm measured after 6 hrs by XTT reduction assay. Format: functional. Background: Formazan colour is commonly taken as a measure of viable cells.
A short description of data set [17]: Cytotoxicity against HUVEC cells assessed as inhibition of cell growth incubated for 72 hrs by MTT assay. It counts as toxicity, cell-based. To be noted: human.
Data set [18] deals with Candida albicans. The data set can be described thus: Selectivity ratio of MFC for fungicidal activity against Candida albicans SC5314 to MIC80 for antifungal activity against Candida albicans SC5314. Format: functional.
Data set [19] concerns Candida albicans. The data set can be described thus: Antifungal activity against fluconazole-resistant Candida albicans clinical isolate 100 assessed as inhibition of fungal growth by CLSI M27-A3 guidelines based method. It counts as functional.
Data set [20] concerns Candida albicans. The data set can be described thus: Antifungal activity against fluconazole-resistant Candida albicans clinical isolate 632 assessed as inhibition of fungal growth by CLSI M27-A3 guidelines based method. It counts as functional.
The subject of data set [21] is Candida albicans. Kind of data set: Antifungal activity against fluconazole-resistant Candida albicans clinical isolate 904 assessed as inhibition of fungal growth by CLSI M27-A3 guidelines based method. Format: functional.
Data set [22] relates to Candida albicans. Kind of data set: Antifungal activity against fluconazole-resistant Candida albicans clinical isolate 311 assessed as inhibition of fungal growth by CLSI M27-A3 guidelines based method. It counts as functional.
A short description of data set [23]: Cytotoxicity against human OVCAR-3 cells assessed as inhibition of cell growth incubated for 72 hrs by MTT assay. Format: toxicity, cell-based.
In data set [24] the test system is Candida albicans. The data set can be described thus: Antifungal activity against fluconazole-resistant Candida albicans clinical isolate 103 assessed as inhibition of fungal growth by CLSI M27-A3 guidelines based method. Format: functional.
Data set [25] is described as follows: Cytotoxicity against HEK293T cells assessed as inhibition of cell growth incubated for 72 hrs by MTT assay. Format: toxicity, cell-based, HEK-293T. To be noted: human.
Data set [26] deals with Candida albicans. The data set can be described thus: Antibiofilm activity against fluconazole-resistant Candida albicans CPCC400616 assessed as inhibition of metabolic activity of biofilm measured after 24 hrs by XTT reduction assay. It counts as functional.
The subject of data set [27] is Candida albicans. The data set can be described thus: Fungicidal activity against Candida albicans SC5314 incubated for 48 hrs by PDA plate based method. It counts as functional.
Data set [28] has as its system Candida albicans. Kind of data set: Fungicidal activity fluconazole and iodiconazole resistant Candida albicans clinical isolate 17# assessed as decrease in number of fungi at 8 times of MIC measured within 24 hrs by time-kill kinetics assay. Format: functional, organism-based.
For data set [29], the system named is Candida albicans. The data set can be described thus: Effect on sterol composition in Candida albicans SC5314 assessed as other sterols content at 4 microg/ml measured after 16 hrs by GC-MS analysis (reference value: 1.06 %). Format: functional. To be noted: dose 4 µg/ml.
Data set [30] concerns Candida albicans. The data set can be described thus: Effect on sterol composition in Candida albicans SC5314 assessed as 14alpha-demethyllanosterol content at 4 microg/ml measured after 16 hrs by GC-MS analysis (reference value: 1.98 %). Format: functional. To be noted: dose 4 µg/ml.
Data set [31] deals with Candida albicans. Kind of data set: Inhibition of hyphal formation in fluconazole-resistant Candida albicans CPCC400616 assessed as reduction in invasive ability at 2 microg/ml measured after 4 hrs by inverted microscopic analysis. The settings on record: dose 2.0 µg/ml. It counts as functional, organism-based.
In data set [32] the test system is Candida albicans. Kind of data set: Fungicidal activity fluconazole and iodiconazole resistant Candida albicans clinical isolate 17# assessed as decrease in number of fungi at 16 microg/ml measured within 24 hrs by time-kill kinetics assay. Format: functional, organism-based. To be noted: dose 16.0 µg/ml.
Data set [33] deals with Candida albicans. Kind of data set: Effect on sterol composition in Candida albicans SC5314 assessed as obtusifoliol content at 4 microg/ml measured after 16 hrs by GC-MS analysis relative to control. Format: functional. The settings on record: dose 4 µg/ml.
The test system of data set [34] is Candida albicans. Kind of data set: Effect on sterol composition in Candida albicans SC5314 assessed as lanosterol content at 4 microg/ml measured after 16 hrs by GC-MS analysis relative to control. To be noted: dose 4 µg/ml. It counts as functional.
Data set [35] relates to Candida albicans. Kind of data set: Effect on sterol composition in Candida albicans SC5314 assessed as eburicol content at 4 microg/ml measured after 16 hrs by GC-MS analysis relative to control. It counts as functional. The settings on record: dose 4 µg/ml.
Data set [36] deals with Candida albicans. Kind of data set: Effect on sterol composition in Candida albicans SC5314 assessed as ergosterol content at 4 microg/ml measured after 16 hrs by GC-MS analysis (reference value: 96.96 %). Format: functional. The settings on record: dose 4 µg/ml.

`CN(Cc1ccc(C#Cc2ccc(F)cc2F)cc1)CC(O)(Cn1cncn1)c1ccc(F)cc1F` (stereo not drawn): the MIC80 (usually an inhibitory concentration at the 80% level, which refers to growth in some studies and to a panel of isolates in others) in data set [1] stood at 0.006 µg/mL (≈ 0.0121 µM); in [2], 0.01 µg/mL (≈ 0.0202 µM); in [3] it was 0.01 µg/mL (≈ 0.0202 µM); in data set [4] it was 0.006 µg/mL (≈ 0.0121 µM); in data set [6], 0.006 µg/mL (≈ 0.0121 µM); in data set [8], 0.006 µg/mL (≈ 0.0121 µM). Further, the MIC80 in [9] was found to be 0.013 µg/mL (≈ 0.0263 µM). For the same molecule, in [5], the half-life (usually the time in which the quantity being followed falls by half) is 26.3 min. In addition, the remaining at 1 h in [7] was 20.9%.
Regarding `CN(Cc1ccc(I)cc1)CC(O)(Cn1cncn1)c1ccc(F)cc1F` (stereo not drawn), the 50% inhibitory concentration (IC50) at 72 h in [10], in data set [17], in data set [23] and in data set [25] was above 10 µM throughout. The MIC80 is above 64 µg/mL in data set [11]; 0.25 µg/mL (≈ 0.516 µM) in [12]; 0.025 µg/mL (≈ 0.0516 µM) in data set [1]; 0.2 µg/mL (≈ 0.413 µM) in data set [2]; 0.2 µg/mL (≈ 0.413 µM) in [3]; 2 µg/mL (≈ 4.13 µM) in data set [13]. Further, the MIC80 amounted to 0.025 µg/mL (≈ 0.0516 µM) in data set [4]; 0.25 µg/mL (≈ 0.516 µM) in data set [15]; 2 µg/mL (≈ 4.13 µM) in data set [19]; 16 µg/mL (≈ 33 µM) in data set [20]; 8 µg/mL (≈ 16.5 µM) in data set [21]; 0.013 µg/mL (≈ 0.0268 µM) in data set [6]. For the same molecule, the MIC80 is above 64 µg/mL in [22], 32 µg/mL (≈ 66.1 µM) in data set [24], 0.013 µg/mL (≈ 0.0268 µM) in data set [8] and 0.1 µg/mL (≈ 0.206 µM) in data set [9]. Moreover, the MFC in [14] and in data set [27] was 32 µg/mL (≈ 66.1 µM) in each case. Moreover, the half-life in data set [5] was 20.4 min. In addition, the MIC50 in data set [16] is 8 µg/mL (≈ 16.5 µM); in data set [26], 16 µg/mL (≈ 33 µM). The Selectivity ratio in [18] is recorded as above 256. Further, in [7], the remaining at 1 h was found to be 13.1%. For the same molecule, the outcome in [28] was inactive.
In the case of `OC(Cn1cncn1)(Cn1cncn1)c1ccc(F)cc1F` [FLUCONAZOLE], the IC50 at 72 h in data set [10], in data set [17], in data set [23] and in data set [25] was above 40 µM throughout. Further, the MIC80 was above 64 µg/mL in [11]; 64 µg/mL (≈ 209 µM) in [12]; 1 µg/mL (≈ 3.27 µM) in [1]; 8 µg/mL (≈ 26.1 µM) in [2]; 8 µg/mL (≈ 26.1 µM) in data set [3]; above 64 µg/mL in data set [13]. Besides, the MIC80 in data set [4] was 0.5 µg/mL (≈ 1.63 µM); in data set [15] it was above 64 µg/mL; in data set [19], above 64 µg/mL; in data set [20], above 64 µg/mL; in [21] it was above 64 µg/mL; in data set [6] it was 0.25 µg/mL (≈ 0.816 µM). The MIC80 in data set [22] is above 64 µg/mL; in [24] it was above 64 µg/mL; in [8], 0.25 µg/mL (≈ 0.816 µM); in [9] it was 4 µg/mL (≈ 13.1 µM). The minimum fungicidal concentration (MFC) in [14] and in [27] was above 64 µg/mL throughout. Moreover, the Activity in data set [29] came out at 8.64%; in data set [30], 3.03%; in data set [33] it was 14.37%; in data set [34], 9.3%; in data set [35], 60.09%; in data set [36] it was 4.57%. In addition, the MIC50 in [16] is 16 µg/mL (≈ 52.2 µM); in [26] it was above 32 µg/mL. Also, the inhibition entry in [31] is “inactive”. Moreover, in data set [32], the result was inactive.
Take `CN(Cc1ccc(C#Cc2ccccc2)cc1)CC(O)(Cn1cncn1)c1ccc(F)cc1F` (stereo not drawn): the MIC80 in [1] was 0.013 µg/mL (≈ 0.0284 µM); in data set [2], 0.05 µg/mL (≈ 0.109 µM); in [3], 0.1 µg/mL (≈ 0.218 µM); in data set [4] it was 0.013 µg/mL (≈ 0.0284 µM); in data set [6], 0.013 µg/mL (≈ 0.0284 µM); in data set [8], 0.013 µg/mL (≈ 0.0284 µM). The MIC80 in [9] turned out to be 0.025 µg/mL (≈ 0.0545 µM). In addition, the half-life in [5] was 4.39 min. Besides, in data set [7], the remaining at 1 h worked out at 0.936%.
